Source: patent publication US20200316023A1, “Method Of Producing Bacterially Derived Indole-3-Propionic Acid And Compositions Comprising Same” (The Procter & Gamble Company, priority 2019, published 2020)

Experiment: pharmacokinetic studies of IPA dose versus serum IPA levels
Format: in vivo
Settings: dose of from about 5 to about 10 mg of IPA
Experimental: In some aspects, the composition can comprise from about 5 to about 10 mg of IPA per dose of the composition.

Question: With `O=C(O)CCc1c[nH]c2ccccc12` [IPA, Indole-3-propionic acid] as the compound, how does the “IPA levels in serum relative to endogenous baseline” value read?
Answer: The value was “increase IPA levels in serum beyond endogenous baseline values”.
